Data as given in patent publication US20060024699A1, “Method for evaluating a substance capable of effecting on endoplasmic reticulum stress-and/or amyloid beta-induced apoptosis” (priority 2004, published 2006).

How the values were obtained:
Type in all cases: cell-based, human
[1] = tested on: pro-caspase-4; assay: Cleavage of pro-caspase-4 in SK-N-SH cells treated with apoptosis inducers (Western blotting); details: tunicamycin 1 μg/ml, thapsigargin 0.5 μM, etoposide 100 μM for 16 or 24 hours, staurosporine 0.1 μM for 8 hours
Description: SK-N-SH cells were treated with various kinds of apoptosis inducers such as tunicamycin (manufactured by SIGMA), thapsigargin (manufactured by SIGMA), etoposide (manufactured by SIGMA), staurosporine (manufactured by SIGMA), UV and the like, to evaluate change in caspase-4. Specifically, SK-N-SH cells were treated either with exposure to an endoplasmic reticulum stress inducer, tunicamycin (1 μg/ml) or thapsigargin (0.5 μM), exposure to a non-endoplasmic reticulum stress inducer, etoposide (100 μM) or staurosporine (0.1 μM), or irradiated with 150 J/m2 UV, in α-MEM (manufactured by Invitrogen) containing 10% by weight of fetal bovine serum, at 37° C. under 5% by volume of CO2. Here, the exposures to tunicamycin, thapsigargin and etoposide were 16 or 24 hours, exposure to staurosporine was 8 hours, and UV irradiation was 8 hours.
(§1) Thereafter, the cells obtained were washed with phosphate buffered saline, and then harvested. The resulting cells were lysed in TNE buffer (composition: 10 mM Tris-HCl, pH 7.8, 1 mM EDTA, 150 mM NaCl, 1 mM phenylmethylsulphonyl fluoride) containing 0.5% by weight of NP-40 (trade name: Nonidet P-40), to give a cell extract. Equal amount of a cell extract (corresponding to 15 μg of protein) was subjected to 12% by weight SDS-PAGE. After the SDS-PAGE, proteins on the gel were transferred to a PVDF membrane (manufactured by Millipore). The membrane was blocked with 5% by weight of bovine serum albumin (BSA). The resulting membrane was incubated with a primary antibody (anti-caspase-4 antibody, anti-caspase-3 antibody, anti-caspase-7 antibody or anti-β-actin antibody), and thereafter incubated with a horseradish peroxidase (HRP)-conjugated secondary antibody. Thereafter, caspase-4, caspase-3, caspase-7 or β-actin was detected with trade name: ECL detection system (manufactured by Amersham-Pharmacia).

[2] = tested on: SK-N-SH cells; assay: Thapsigargin-induced cell death assessed by morphological changes in SK-N-SH cells; details: untransfected SK-N-SH cells; 0.5 μM thapsigargin for 40 hours
Description: In the same manner as described above, cellular morphological changes of SK-N-SH cells treated with various apoptosis inducers were evaluated by phase contrast microscopy. SK-N-SH cells treated in the same manner were stained with 10 μM Hoechst 33342. Nuclear morphological changes of stained cells were evaluated by fluorescence microscopy. Cell death was detected by using as an index cellular morphological changes and nuclear morphological changes. At least 500 cells were counted. The data was expressed as the mean ±SEM from three independent experiments and P values were calculated by Student's t-test.
SK-N-SH cell was transfected at 50% of confluence with 1.0 μg of the siRNA in 24-well plastic plates (manufactured by Nunc) containing αMEM (manufactured by Invitrogen) containing 10% by weight of fetal bovine serum, at 37° C. under 5% by volume of CO2, using trade name: Oligofectamine (manufactured by Invitrogen) according to the manufacturer's protocol. Transfected SK-N-SH cells were incubated at 37° C. for 60 hours without changing the medium.
In addition, SK-N-SH cells after the culturing were incubated in αMEM (manufactured by Invitrogen) containing 10% by weight of fetal bovine serum at 37° C. under 5% by volume of CO2, with or without 0.5 μM thapsigargin for 40 hours. […] Caspase-4 or β-actin was then detected with an ECL detection system (manufactured by Amersham-Pharmacia). […]

[3] = tested on: caspase-4; assay: Cleavage of caspase-4 in SK-N-SH cells treated with amyloid-β peptides (Western blotting); details: 25 μM Aβ25-35, 5 μM Aβ1-40, 25 μM Aβ35-25, 5 M Aβ40-1
Description: as §1, with “Amersham-Pharmacia). […]” for “Amersham-Pharmacia).”
SK-N-SH cells were incubated in α-MEM (manufactured by Invitrogen) containing 10% by weight of fetal bovine serum, at 37° C. under 5% by volume of CO2, with 25 μM Aβ25-35, 5 μM Aβ1-40, 25 μM Aβ35-25, or 5 M Aβ40-1. Caspase-4, caspase-7 or β-actin in the cell extract was then detected in the same manner as described above.

[4] = tested on: SK-N-SH cell; assay: Nuclear morphological changes (Hoechst33342) after tunicamycin in vector-transfected SK-N-SH cells; details: tunicamycin 1 μg/ml for 30 hours
Description: (§2) SK-N-SH cells were stably transfected with pCAGGS-hBcl-2 (Iwahashi, H. et al., Nature, 390, 413-417 (1997), all teachings of which are incorporated herein by reference) by a conventional method. The resulting cells were then cultured in αMEM (manufactured by Invitrogen) containing 10% by weight of fetal bovine serum, at 37° C. under 5% by volume of CO2 to overexpress Bcl-2. Similarly, HeLa cells were stably transfected with pCAGGS-hBcl-2. The resulting cells were then cultured in DMEM (manufactured by Invitrogen) containing 10% by weight of fetal bovine serum, at 37° C. under 5% by volume of CO2 for 48 hours to overexpress Bcl-2. Here, SK-N-SH cells and HeLa cells were stably transfected with trade name: pCAGGS (Hitoshi Niwa et al., Gene, 108, 193-200 (1991), all teachings of which are incorporated herein by reference) as controls, in the same manner as described above, respectively.
(§3) In addition, each of the transfectants was treated with tunicamycin (1 μg/ml) for 30 hours, stained with Hoechst33342, and observed by fluorescence microscopy.

[5] = tested on: HeLa cell; assay: Nuclear morphological changes (Hoechst33342) after tunicamycin in vector-transfected HeLa cells; details: tunicamycin 1 μg/ml for 30 hours
Description: as §2, §3

Compound | cleavage of pro-caspase-4 [1] | cleavage of caspase-4 [3] | other results
COc1cc([C@@H]2c3cc4c(cc3[C@@H](O[C@@H]3O[C@@H]5CO[C@@H](C)O[C@H]5[C@H](O)[C@H]3O)[C@H]3COC(=O)[C@H]23)OCO4)cc(OC)c1O [etoposide] | not cleaved |  | 
CN[C@@H]1C[C@H]2O[C@@](C)([C@@H]1OC)n1c3ccccc3c3c4c(c5c6ccccc6n2c5c31)C(=O)NC4 [staurosporine] | not cleaved |  | 
C/C=C(/C)C(=O)O[C@H]1C(C)=C2[C@H]([C@@H]1OC(=O)CCCCCCC)[C@@](C)(OC(C)=O)C[C@H](OC(=O)CCC)[C@@]1(O)[C@H]2OC(=O)[C@@]1(C)O [thapsigargin] | induced the cleavage of pro-caspase-4 |  | cells resulting in death [2]: about 60%
Aβ1-40: amyloid-β peptide 1-40 |  | cleavage of caspase-4 was observed | 
Aβ25-35: partial peptide of amyloid-β (GSNKGAIIGLM; Amyloid-beta protein 40; UniProt P05067 696-706, looked up, fragment) |  | cleavage of caspase-4 was observed | 
tunicamycin | induced the cleavage of pro-caspase-4 |  | apoptotic nuclear morphological changes [4]: apoptotic nuclear morphological changes were induced; apoptotic nuclear morphological changes [5]: apoptotic nuclear morphological changes were induced
